Columns and labels:
MCF-7 cells [1] = experiment: MTT assay (cell viability); assay type: cell-based, human; conditions: different concentrations and time points
Description: (§1) MTT Assay: After treatment with different concentrations of α-santalol for different time points, cells were incubated with MTT and subsequently solubilized in DMSO. Absorbance was measured at 570 nm.

MDA-MB-231 cells [2] = experiment: MTT assay (cell viability); assay type: cell-based, human; conditions: different concentrations and time points
Description: as §1

MCF-7 cells [3] = experiment: BrdU cell proliferation ELISA; assay type: cell-based, human; conditions: 24 and 48 hours
Description: (§2) BrdU Cell Proliferation ELISA: Used to quantitate cell proliferation based on the measurement of Brdu incorporation during DNA synthesis in proliferating cells. At the end of 24 and 48 hours of treatment, cells were labeled with BrdU, fixed, denatured, and then incubated with Anti-BrdU POD. Absorbance was measured at 405 nm.

MDA-MB-231 cells [4] = experiment: BrdU cell proliferation ELISA; assay type: cell-based, human; conditions: 24 and 48 hours
Description: as §2

MCF-7 cells [5] = experiment: TUNEL assay and flow cytometry (apoptosis); assay type: cell-based, human
Description: (§3) TUNEL Assay and Flow Cytometry: After incubation with alpha-santalol, cells were fixed with paraformaldehyde and ethanol. DNA strand breaks were labeled with BrdUTP. Brdu incorporation at DNA strand breaks was detected by Alexa Fluor 488 dye-labeled anti-BrdU antibodies. Samples were analyzed by Flow Cytometry.

MDA-MB-231 cells [6] = experiment: TUNEL assay and flow cytometry (apoptosis); assay type: cell-based, human
Description: as §3

MCF-7 cells [7] = experiment: Cell cycle analysis, propidium iodide flow cytometry; assay type: cell-based, human; conditions: 25 μM-75 μM, 12 hours
Description: (§4) Cell Cycle Analysis: After 12 hours of treatment with alpha-santalol, cells were fixed with 70% ethanol in PBS, treated with RNaseA, followed by staining with propidium iodide. Cells were analyzed by flow cytometry to determine cell-cycle distribution.

MDA-MB-231 cells [8] = experiment: as above; assay type: cell-based, human; conditions: 25 μM-75 μM, 12 hours
Description: as §4

MCF-7 cells [9] = experiment: Western blotting of apoptotic proteins; assay type: cell-based, human; conditions: 12, 24 or 48 hours
Description: (§5) Western Blotting: Cells were treated with various concentrations of α-santalol and incubated for 12, 24 or 48 hours. Cell lysates were made and subjected to western blot analysis to determine the expression of different proteins.

MDA-MB-231 cells [10] = experiment: Western blotting of apoptotic proteins; assay type: cell-based, human; conditions: 12, 24 or 48 hours
Description: as §5

[11] = Penetration of α-santalol into porcine mammary papilla without keratin plug removal (Experiment 25); assay type: in vitro ADME; conditions: value (SEM), n=3
Description: Experiment procedure—Mammary papillae were setup in FSD and kept for saturation for 12 hours. Then 500 μl of drug formulation was added in the donor. Three 200 μl samples of donor were taken to determine GCMS area of donors. Now 200 μl samples were collected from the receptor on each time point. […] Results may be seen in FIG. 51 and Table 33.

[12] = Topical transmammary delivery of tamoxifen with and without α-santalol via porcine mammary papilla (Experiment 27); assay type: in vitro ADME; conditions: given in combination with α-santalol
Description: From the receptor, 200 μl samples were taken at every time point. After 48 hours, tissues were taken, washed, cut in four sections, weighed and solubilized using the tissue solubilizer. After 24 hours, DPM counts were measured from each section of the tissue using scintillation cocktail.

[13] = 6 hours treatment 48 h disposition study

| Compound | Cell viability (MTT) (MCF-7 cells [1]) | Cell viability (MTT) (MDA-MB-231 cells [2]) | Cell proliferation (BrdU ELISA) (MCF-7 cells [3]) | Cell proliferation (BrdU ELISA) (MDA-MB-231 cells [4]) | Apoptosis (TUNEL, flow cytometry) (MCF-7 cells [5]) | Apoptosis (TUNEL, flow cytometry) (MDA-MB-231 cells [6]) | Cell cycle distribution (MCF-7 cells [7]) | Cell cycle distribution (MDA-MB-231 cells [8]) | Cleavage of apoptotic proteins (western blot) (MCF-7 cells [9]) | Cleavage of apoptotic proteins (western blot) (MDA-MB-231 cells [10]) | Tissue retention ([11]; 5% v/v in 2:1 ethanol:PBS, 6 h treatment) | Tissue retention [11, 13] | Tissue retention (% of applied dose) [11, 13] | Tissue retention (% of applied dose) ([11]; 6 h treatment) | Tissue retention ([11]; 48 h treatment) | Tissue retention (% of applied dose) ([11]; 48 h treatment) | Applied dose retained by the tissue [12] |
| --- | --- | --- | --- | --- | --- | --- | --- | --- | --- | --- | --- | --- | --- | --- | --- | --- | --- |
| C/C(=C/CCC1(C)C2CC3C(C2)C31C)CO (stereo not drawn) [alpha-santalol] | inhibition of cell viability and proliferation in a time and dose-dependent manner | inhibition of cell viability and proliferation in a time and dose-dependent manner | inhibition of cell viability and proliferation in a time and dose-dependent manner | inhibition of cell viability and proliferation in a time and dose-dependent manner | significantly induced apoptosis | significantly induced apoptosis | arrested cell cycles at the G2/M phase | arrested cell cycles at the G2/M phase | PARP cleavage | caspase-3 and PARP cleavage | 5.21 (0.41) μmole/g tissue | 5.34 (0.52) μmole/g tissue | 2.01 (0.12) % of applied dose | 2.20 (0.19) % of applied dose | 35.52 (3.69) μmole/g tissue | 15.30 (2.20) % of applied dose | – |
| CC/C(=C(\c1ccccc1)c1ccc(OCCN(C)C)cc1)c1ccccc1 [tamoxifen] | – | – | – | – | – | – | – | – | – | – | – | – | – | – | – | – | approximately 40% |

Source: patent US9220680B2, “Compositions and methods for localized drug delivery through mammary papillae” (South Dakota State University, priority 2012, dated 2015)
